Reference: patent US20220323406A1, “METHODS AND COMPOSITIONS FOR DIFFERENTIATING STEM CELLS” (Massachusetts Institute of Technology, priority 2019, published 2022)

What was measured:
[1] = tested on: ENR+CD organoids (ISC to Paneth cell differentiation); test: Primary screen: basal (non-stimulated) lysozyme secretion LYZ.NS, 2.5-D 384-well ENR+CD organoid differentiation; type: cell-based, mouse; details: primary screen; for Z.LYZ.NS: standard z score
Excerpt: (§1) High-throughput screening.

[2] = tested on: ENR+CD organoids (ISC to Paneth cell differentiation); test: Primary screen: CCh-stimulated lysozyme secretion LYZ.S, 2.5-D 384-well ENR+CD organoid differentiation; type: cell-based, mouse; details: primary screen
Excerpt: as §1

ENR+CD organoids = test: Primary screen: ATP (CellTiter-Glo 3D, CTG) cell number/viability, 2.5-D 384-well ENR+CD organoids; details: primary screen; for Z.CTG: standard z score;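 as to all read-outs here: compounds given at plating and again on day 3 over a 6-day differentiation from ENR+CV stem-cell-enriched precursors, ATP measured on day 6, plate median as control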
[3] = dose 0.08 uM, FC vs plate median
[4] = dose 0.40 uM, FC vs plate median
[5] = dose 2.00 uM, FC vs plate median
[6] = dose 10.00 uM, FC vs plate median
[7] = dose 0.08 uM, FC relative to plate median
[8] = dose 0.40 uM, FC relative to plate median
[9] = dose 2.00 uM, FC relative to plate median
[10] = dose 10.00 uM, FC relative to plate median

## CC(=O)c1c(C)c2cnc(Nc3ccc(N4CCNCC4)cn3)nc2n(C2CCCC2)c1=O.Cl [Palbociclib (PD-0332991) HCl]
[1]; dose 0.08 uM
  Z.LYZ.NS: −0.055
[1]; dose 0.40 uM
  Z.LYZ.NS: −0.248
[1]; dose 2.00 uM
  Z.LYZ.NS: −0.440
[1]; dose 10.00 uM
  Z.LYZ.NS: −1.150
[1]; [3]
  Dose.FC.LYZ.NS: −0.006 log2 fold change
[1]; [4]
  Dose.FC.LYZ.NS: −0.029 log2 fold change
[1]; [5]
  Dose.FC.LYZ.NS: −0.051 log2 fold change
[1]; [6]
  Dose.FC.LYZ.NS: −0.132 log2 fold change
[2]; [3]
  Dose.FC.LYZ.S: 0.004 log2 fold change
[2]; [4]
  Dose.FC.LYZ.S: −0.042 log2 fold change
[2]; [5]
  Dose.FC.LYZ.S: −0.122 log2 fold change
[2]; [6]
  Dose.FC.LYZ.S: −0.203 log2 fold change
ENR+CD organoids; dose 0.08 uM
  Z.CTG: 0.404
ENR+CD organoids; dose 0.40 uM
  Z.CTG: −0.836
ENR+CD organoids; dose 2.00 uM
  Z.CTG: −0.199
ENR+CD organoids; dose 10.00 uM
  Z.CTG: −1.617
ENR+CD organoids; [3]
  Dose.FC.CTG: 0.169 log2 fold change
ENR+CD organoids; [4]
  Dose.FC.CTG: −0.350 log2 fold change
ENR+CD organoids; [5]
  Dose.FC.CTG: −0.083 log2 fold change
ENR+CD organoids; [6]
  Dose.FC.CTG: −0.677 log2 fold change

## CCN1CCN(c2ccc(Nc3cc(N(C)C(=O)Nc4c(Cl)c(OC)cc(OC)c4Cl)ncn3)cc2)CC1 [BGJ398 (NVP-BGJ398)]
[1]; dose 0.08 uM
  Dose.FC.LYZ.NS: −0.002 log2 fold change
  Z.LYZ.NS (standard z score): −0.017
[1]; dose 0.40 uM
  Dose.FC.LYZ.NS: −0.060 log2 fold change
  Z.LYZ.NS (standard z score): −0.520
[1]; dose 2.00 uM
  Dose.FC.LYZ.NS: −0.052 log2 fold change
  Z.LYZ.NS (standard z score): −0.450
[1]; dose 10.00 uM
  Dose.FC.LYZ.NS: −0.269 log2 fold change
  Z.LYZ.NS (standard z score): −2.345
[2]; dose 0.08 uM
  Dose.FC.LYZ.S: −0.036 log2 fold change
[2]; dose 0.40 uM
  Dose.FC.LYZ.S: 0.002 log2 fold change
[2]; dose 2.00 uM
  Dose.FC.LYZ.S: −0.062 log2 fold change
[2]; dose 10.00 uM
  Dose.FC.LYZ.S: −0.350 log2 fold change
ENR+CD organoids; dose 0.08 uM
  Dose.FC.CTG: −0.054 log2 fold change
  Z.CTG (standard z score): −0.128
ENR+CD organoids; dose 0.40 uM
  Dose.FC.CTG: 0.026 log2 fold change
  Z.CTG (standard z score): 0.063
ENR+CD organoids; dose 2.00 uM
  Dose.FC.CTG: −0.185 log2 fold change
  Z.CTG (standard z score): −0.442
ENR+CD organoids; dose 10.00 uM
  Dose.FC.CTG: −1.500 log2 fold change
  Z.CTG (standard z score): −3.583

## Cc1nn(-c2ccccc2)c(C)c1/C=N/N1CCN(Cc2ccccc2)CC1 [SANT-1]
[1]; [7]
  Dose.FC.LYZ.NS: 0.056 log2 fold change
[1]; dose 0.08 uM
  Z.LYZ.NS: 0.485
[1]; [8]
  Dose.FC.LYZ.NS: 0.000 log2 fold change
[1]; dose 0.40 uM
  Z.LYZ.NS: 0.002
[1]; [9]
  Dose.FC.LYZ.NS: 0.175 log2 fold change
[1]; dose 2.00 uM
  Z.LYZ.NS: 1.528
[1]; [10]
  Dose.FC.LYZ.NS: −0.049 log2 fold change
[1]; dose 10.00 uM
  Z.LYZ.NS: −0.430
[2]; [7]
  Dose.FC.LYZ.S: 0.112 log2 fold change
[2]; [8]
  Dose.FC.LYZ.S: 0.024 log2 fold change
[2]; [9]
  Dose.FC.LYZ.S: 0.101 log2 fold change
[2]; [10]
  Dose.FC.LYZ.S: −0.120 log2 fold change
ENR+CD organoids; [7]
  Dose.FC.CTG: 0.308 log2 fold change
ENR+CD organoids; dose 0.08 uM
  Z.CTG: 0.736
ENR+CD organoids; [8]
  Dose.FC.CTG: 0.078 log2 fold change
ENR+CD organoids; dose 0.40 uM
  Z.CTG: 0.186
ENR+CD organoids; [9]
  Dose.FC.CTG: 0.137 log2 fold change
ENR+CD organoids; dose 2.00 uM
  Z.CTG: 0.327
ENR+CD organoids; [10]
  Dose.FC.CTG: −0.042 log2 fold change
ENR+CD organoids; dose 10.00 uM
  Z.CTG: −0.100

## CC(NC(=O)c1ccccc1/N=C/c1c(O)ccc2ccccc12)c1ccccc1 (stereo not drawn) [Sirtinol]
[1]; [7]
  Dose.FC.LYZ.NS: 0.095 log2 fold change
[1]; dose 0.08 uM
  Z.LYZ.NS: 0.824
[1]; [8]
  Dose.FC.LYZ.NS: 0.000 log2 fold change
[1]; dose 0.40 uM
  Z.LYZ.NS: 0.002
[1]; [9]
  Dose.FC.LYZ.NS: 0.061 log2 fold change
[1]; dose 2.00 uM
  Z.LYZ.NS: 0.531
[1]; [10]
  Dose.FC.LYZ.NS: 0.078 log2 fold change
[1]; dose 10.00 uM
  Z.LYZ.NS: 0.679
[2]; [7]
  Dose.FC.LYZ.S: 0.077 log2 fold change
[2]; [8]
  Dose.FC.LYZ.S: 0.088 log2 fold change
[2]; [9]
  Dose.FC.LYZ.S: 0.028 log2 fold change
[2]; [10]
  Dose.FC.LYZ.S: 0.026 log2 fold change
ENR+CD organoids; [7]
  Dose.FC.CTG: −0.218 log2 fold change
ENR+CD organoids; [8]
  Dose.FC.CTG: 0.009 log2 fold change
ENR+CD organoids; [9]
  Dose.FC.CTG: −0.120 log2 fold change
ENR+CD organoids; [10]
  Dose.FC.CTG: −0.078 log2 fold change

## c1ccc(NCc2ccc(CNc3ccccn3)cc2)nc1 [WZ811]
[1]; dose 0.08 uM
  Dose.FC.LYZ.NS: 0.154 log2 fold change
  Z.LYZ.NS (standard z score): 1.337
[1]; dose 0.40 uM
  Dose.FC.LYZ.NS: 0.019 log2 fold change
  Z.LYZ.NS (standard z score): 0.162
[1]; dose 2.00 uM
  Dose.FC.LYZ.NS: 0.094 log2 fold change
  Z.LYZ.NS (standard z score): 0.815
[1]; dose 10.00 uM
  Dose.FC.LYZ.NS: 0.005 log2 fold change
  Z.LYZ.NS (standard z score): 0.045
[2]; dose 0.08 uM
  Dose.FC.LYZ.S: 0.296 log2 fold change
[2]; dose 0.40 uM
  Dose.FC.LYZ.S: 0.007 log2 fold change
[2]; dose 2.00 uM
  Dose.FC.LYZ.S: 0.074 log2 fold change
[2]; dose 10.00 uM
  Dose.FC.LYZ.S: 0.019 log2 fold change
ENR+CD organoids; dose 0.08 uM
  Dose.FC.CTG: 0.140 log2 fold change
  Z.CTG (standard z score): 0.334
ENR+CD organoids; dose 0.40 uM
  Dose.FC.CTG: −0.034 log2 fold change
  Z.CTG (standard z score): −0.082
ENR+CD organoids; dose 2.00 uM
  Dose.FC.CTG: 0.077 log2 fold change
  Z.CTG (standard z score): 0.184
ENR+CD organoids; dose 10.00 uM
  Dose.FC.CTG: 0.044 log2 fold change
  Z.CTG (standard z score): 0.104
